Measured values reported in patent US20080249042A1, “All-Trans-Retinol: All-Trans-13,14-Dihydroretinol Saturase and Methods of Its Use” (UNIVERSITY OF WASHINGTON, priority 2004, published 2008).
Read-outs that look alike come from different tables or passages of the source.

Experiments:
[1] = Liver retinoids of Lrat-/- mice 3 h after gavage with all-trans-ROL palmitate; format: in vivo, mouse; conditions: for Level of liver retinoids 3 hr following gavage with ROL palmitate / concentration at 3 h: Lrat-/- mice, 3 hr post-gavage, liver; for concentration at 3 h: Lrat−/− (LRAT-deficient knockout), mouse, oral, read-out: Level of liver retinoids 3 hr following gavage with ROL palmitate
Text: Metabolism of Retinoids in Vivo. All animal experiments employed procedures approved by the University of Washington and conformed to recommendations of the American Veterinary Medical Association Panel on Euthanasia and recommendations of the Association of Research for Vision and Ophthalmology. Animals were maintained on a 12-h light and 12-h dark cycle. All manipulations were done under dim red or infrared light (>560 nm). Most experiments used 6-12-week-old mice. Lrat−/− mice were genotyped as described previously. Batten, et al. J. Biol. Chem. 279:10422-10432, 2004. Animals were maintained on a control chow diet up to 1 h prior to oral gavage. The appropriate amount of all-trans-ROL palmitate, all-trans-DROL, or all-trans-RA was dissolved in vegetable oil and administered by oral gavage 3 h prior to analysis.
Analysis of Retinoids. Liver (1 g) from retinoid gavaged or naive mice was homogenized in 2 ml of 137 mM NaCl, 2.7 mM KCl, and 10 mM sodium phosphate (pH 7.4) for 30 s using a Polytron homogenizer. 10 μl of 5 M NaOH was added to 3 ml of the ethanolic extract, and the nonpolar retinoids were extracted using 5 ml of hexane. The extraction was repeated, and the organic phases were combined, dried under vacuum, resuspended in hexane, and examined by normal phase HPLC using a normal phase column (Beckman Ultrasphere Si 5μ, 4.6×250 mm). The elution condition was an isocratic solvent system of 10% ethyl acetate in hexane (v/v) for 25 min at a flow rate of 1.4 ml/min at 20° C. with detection at 325 and 290 nm for the detection of nonpolar retinoids and 13,14-dihydroretinoids, respectively. The aqueous phase was acidified with 40 μl of 12 N HCl, and polar retinoids were extracted with 5 ml of hexane. The extraction was repeated, and the organic phases of the polar retinoid extractions were combined, dried, resuspended in solvent composed of 80% CH3CN, 10 mM ammonium acetate, 1% acetic acid, and examined by reverse phase HPLC. Analysis of polar retinoids from tissues was done by reverse phase HPLC using a narrowbore, 120-Å, 5-μm, 2.1×250 mm, Denali C18 column (Grace-Vydac, Hesperia, Calif.). The solvent system was composed of buffer A, 80% methanol, 20% 36 mM ammonium acetate (pH 4.7 adjusted with acetic acid), and buffer B, 100% methanol. The HPLC elution conditions were […], 100% buffer A for 40 min, 100% buffer B for 10 min, and 10 min equilibration in buffer A. The elution profiles of RA and DRA were monitored using an online diode array detector set at 350 and 290 nm, respectively. The peaks were identified based on their UV-visible spectra and/or coelution with synthetic or commercially available standards. The measured area of absorbance was converted to picomoles based on a calibration of the HPLC columns using a known amount of all-trans-RA or all-trans-ROL (Sigma) and all-trans-DROL or all-trans-DRA (synthetic standards). The extraction efficiency was monitored by spiking a tissue sample with [^3H]RA (PerkinElmer Life Sciences) and monitoring the radioactivity recovered from the HPLC column. In the case of liver samples the extraction efficiency was 95% or better. Mass spectrometry analyses of synthesized retinoids and of natural retinoids purified by HPLC were performed using a Kratos profile HV-3 direct probe mass spectrometer.

CYP26C1 = biological target: T1, CYP26C1 (Mus musculus, UniProt B2RXA7); conditions: 0.1 mM, 4 h, cells in culture
T1 sequence (B2RXA7 1-518): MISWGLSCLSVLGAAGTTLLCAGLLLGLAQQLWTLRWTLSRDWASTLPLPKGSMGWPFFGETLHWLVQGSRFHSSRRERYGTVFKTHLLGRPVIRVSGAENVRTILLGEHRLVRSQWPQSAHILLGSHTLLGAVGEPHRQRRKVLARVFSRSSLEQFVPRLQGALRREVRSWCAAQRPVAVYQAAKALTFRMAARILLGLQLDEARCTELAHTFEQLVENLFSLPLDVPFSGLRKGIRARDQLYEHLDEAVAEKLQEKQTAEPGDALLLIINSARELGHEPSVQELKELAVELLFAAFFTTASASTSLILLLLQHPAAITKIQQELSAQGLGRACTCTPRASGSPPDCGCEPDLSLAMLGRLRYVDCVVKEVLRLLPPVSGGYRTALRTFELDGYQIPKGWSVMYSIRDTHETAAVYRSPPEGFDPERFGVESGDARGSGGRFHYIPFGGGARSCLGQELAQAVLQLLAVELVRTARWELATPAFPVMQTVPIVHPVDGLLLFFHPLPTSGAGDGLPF
Method: CYP26A1 Oxidation Assay. […] After 24 h, the transfected cells were split into 12-well plates to ensure an equal number of transfected cells in each assay well. […] The peaks were identified based on their spectra and coelution with standards. The cell lysate was examined for expression of CYP26A1, -B1, and -C1 by SDS-PAGE and immunoblotting of the V5 epitope-tagged recombinant protein using an anti-V5 epitope monoclonal antibody (Invitrogen).

Equine liver ADH = biological target: T2, Equine liver ADH (Equus caballus, UniProt P00327); assay: Oxidation using liver alcohol dehydrogenase; format: biochemical, horse; conditions: in the presence of NAD and NADP
T2 construct: we used ADH purified from horse liver (EC 1.1.1.1 [EC]); purchased Sigma; host or cells: horse liver
T2 sequence (P00327 2-375 limits assumed): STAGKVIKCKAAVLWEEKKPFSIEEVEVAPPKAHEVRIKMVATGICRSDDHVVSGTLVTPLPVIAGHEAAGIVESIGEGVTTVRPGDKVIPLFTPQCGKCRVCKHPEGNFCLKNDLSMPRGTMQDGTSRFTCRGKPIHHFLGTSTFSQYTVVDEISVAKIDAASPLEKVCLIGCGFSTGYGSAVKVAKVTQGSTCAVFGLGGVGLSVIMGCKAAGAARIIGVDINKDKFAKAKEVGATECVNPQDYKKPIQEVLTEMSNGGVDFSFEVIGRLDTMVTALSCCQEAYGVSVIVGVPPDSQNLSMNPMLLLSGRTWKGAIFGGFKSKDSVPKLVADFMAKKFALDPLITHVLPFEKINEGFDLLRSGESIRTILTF
Method: Oxidation of All-trans-ROL and All-trans-DROL Using Liver Alcohol Dehydrogenase. Equine liver ADH (EC 1.1.1.1 [EC] ) was obtained from Sigma and dissolved in 50 mM Tris (pH 8.8) to a concentration of 5 units/ml (8.6 mg/ml). NAD and NADP were mixed together (1:1) at a concentration of 10 mM each. A substrate solution, 2 μl of 2 mM stock of all-trans-ROL or all-trans-DROL in N,N-dimethylformamide, was added to a 1.5-ml Eppendorf tube containing 20 μl of 10% bovine serum albumin, 20 μl of ADH, 2 μl of cofactor mixture, and 50 mM Tris (pH 8.8) to a total volume of 200 μl. The solutions were incubated at 37° C. for 60 min, after which 50 μl of 0.8 M NH2OH solution (pH 7.0) was added, followed by addition of 300 μl of methanol, 15 min at room temperature, and extraction with 300 μl of hexane. The organic phase was dried and analyzed by normal phase HPLC as described in the analysis of nonpolar retinoids extracted from tissue samples. As a control for the nonenzymatic reaction, boiled protein (90° C. for 5 min) was used with or without addition of cofactors.

[2] = Conversion of DROL to DRA by RPE microsomes; format: in vitro ADME; conditions: in the presence of NAD and NADP
Method: Conversion of DROL to DRA in RPE. UV-treated RPE microsomes were prepared as described previously. Stecher, et al. J. Biol. Chem. 274:8577-8585, 1999. Twenty μl of UV-treated RPE microsomes (3 mg/ml) were mixed with 20 μM DROL or ROL substrates, 1% bovine serum albumin, and 50 mM Tris (pH 8.8) and were incubated at 37° C. for 60 min in the presence or absence of NAD NADP cofactor mixture at 50 μM each. In order to stop the reaction, proteins were precipitated by mixing with an equal volume of CH3CN followed by high speed centrifugation. […] A boiled RPE membrane control was used to assay nonenzymatic conversion of DROL. The elution of all-trans-DROL metabolites was monitored at 290 nm.

[3] = 3 h post-gavage with ROL palmitate
[4] = 10^5 IU/kg body weight all-trans-ROL palmitate
[5] = 10^6 IU/kg body weight all-trans-ROL palmitate

Liver level, fold lower than all-trans-ROL [1, 3]	Structure (SMILES)	Liver level, fold lower than all-trans-RA [1, 3]	Level of liver retinoids 3 hr following gavage with ROL palmitate [1, 4]	Level of liver retinoids 3 hr following gavage with ROL palmitate [1, 5]	Oxidation to polar metabolites by CYP26C1 (CYP26C1)	Oxidation to the aldehyde by ADH (Equine liver ADH)	Conversion to the acid by RPE microsomes [2]	concentration at 3 h [1, 4] [µM]	concentration at 3 h [1, 5] [µM]
–	CC1=C(/C=C/C(C)=C/C=C/C(C)CC(=O)O)C(C)(C)CCC1 (stereo not drawn) [all-trans-DRA, all-trans-13,14-dihydroretinoic acid]	30-50 fold	10 ± 2 pmol/g tissue	190 ± 17 pmol/g tissue	efficiently carried out the oxidation	–	–	–	–
280-330 fold	CC1=C(/C=C/C(C)=C/C=C/C(C)CCO)C(C)(C)CCC1 (stereo not drawn) [all-trans-DROL, all-trans-13,14-dihydroretinol]	–	21 ± 4 pmol/g tissue	100 ± 18 pmol/g tissue	–	efficiently carried out the conversion	efficiently converted	–	–
–	CC1=C(/C=C/C(C)=C/C=C/C(C)=C/C(=O)O)C(C)(C)CCC1 [all-trans-RA, all-trans-retinoic acid, reference compound]	–	–	–	efficiently carried out the oxidation	–	–	0.32 ± 0.24	9.4
–	CC1=C(/C=C/C(C)=C/C=C/C(C)=C/CO)C(C)(C)CCC1 [all-trans-ROL, all-trans-retinol]	–	7,000 ± 1,200 pmol/g tissue	28,000 ± 300 pmol/g tissue	–	efficiently carried out the conversion	catalyzed the conversion	–	–
